Experimental data taken from the supplement of paper PMC10627819.

Columns and labels:
Assay in all cases: Bliss interaction score (quartile over a dose matrix) (fitness difference); higher = more antagonism (negative = synergy)
B. subtilis 168 = tested on: B. subtilis 168
In short: (§1)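 Each plate was normalised to the robust mean of its own no-drug wells, using OD595 at entry into stationary phase, with values capped at 1. This normalised growth is the fitness value. The Bliss score is the difference between observed and product-expected fitness, with single-drug fitness inferred from the combination data and quartiles taken over technical, biological and donor/recipient replicates.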

S. aureus DSM 20231 = tested on: S. aureus DSM 20231
In short: as §1

S. aureus Newman = tested on: S. aureus Newman
In short: as §1

S. pneumoniae D39V = tested on: S. pneumoniae D39V
In short: as §1
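Also: first quartile when negative (synergy) and third quartile when positive (antagonism).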

SMILES: CN[C@H](CC(C)C)C(=O)N[C@H]1C(=O)N[C@@H](CC(N)=O)C(=O)N[C@H]2C(=O)N[C@H]3C(=O)N[C@H](C(=O)N[C@H](C(=O)O)c4cc(O)cc(O)c4-c4cc3ccc4O)[C@H](O[C@H]3C[C@](C)(N)[C@@H](O)[C@H](C)O3)c3ccc(c(Cl)c3)Oc3cc2cc(c3O[C@@H]2O[C@H](CO)[C@@H](O)[C@H](O)[C@H]2O[C@H]2C[C@](C)(NCc3ccc(-c4ccc(Cl)cc4)cc3)[C@@H](O)[C@H](C)O2)Oc2ccc(cc2Cl)[C@H]1O [Oritavancin] + Cc1cc(NS(=O)(=O)c2ccc(N)cc2)no1 [Sulfamethoxazol]
- Bliss interaction score (B. subtilis 168): -0.0377
- Bliss interaction score (S. aureus DSM 20231): -0.0575
- Bliss interaction score (S. aureus Newman): 0.0801
- Bliss interaction score (S. pneumoniae D39V): -0.0491

SMILES: CN[C@H](CC(C)C)C(=O)N[C@H]1C(=O)N[C@@H](CC(N)=O)C(=O)N[C@H]2C(=O)N[C@H]3C(=O)N[C@H](C(=O)N[C@H](C(=O)O)c4cc(O)cc(O)c4-c4cc3ccc4O)[C@H](O[C@H]3C[C@](C)(N)[C@@H](O)[C@H](C)O3)c3ccc(c(Cl)c3)Oc3cc2cc(c3O[C@@H]2O[C@H](CO)[C@@H](O)[C@H](O)[C@H]2O[C@H]2C[C@](C)(NCc3ccc(-c4ccc(Cl)cc4)cc3)[C@@H](O)[C@H](C)O2)Oc2ccc(cc2Cl)[C@H]1O [Oritavancin] + Cc1onc(-c2ccccc2)c1C(=O)N[C@@H]1C(=O)N2[C@@H]1SC(C)(C)[C@@H]2C(=O)O [Oxacillin]
- Bliss interaction score (B. subtilis 168): 0.0256
- Bliss interaction score (S. aureus DSM 20231): -0.0461
- Bliss interaction score (S. aureus Newman): -0.0656
- Bliss interaction score (S. pneumoniae D39V): -0.167

SMILES: CN[C@H](CC(C)C)C(=O)N[C@H]1C(=O)N[C@@H](CC(N)=O)C(=O)N[C@H]2C(=O)N[C@H]3C(=O)N[C@H](C(=O)N[C@H](C(=O)O)c4cc(O)cc(O)c4-c4cc3ccc4O)[C@H](O[C@H]3C[C@](C)(N)[C@@H](O)[C@H](C)O3)c3ccc(c(Cl)c3)Oc3cc2cc(c3O[C@@H]2O[C@H](CO)[C@@H](O)[C@H](O)[C@H]2O[C@H]2C[C@](C)(NCc3ccc(-c4ccc(Cl)cc4)cc3)[C@@H](O)[C@H](C)O2)Oc2ccc(cc2Cl)[C@H]1O [Oritavancin] + Cn1nnc(-c2ccc(-c3ccc(N4C[C@H](CO)OC4=O)cc3F)cn2)n1 [Tedizolid]
- Bliss interaction score (B. subtilis 168): -0.0251
- Bliss interaction score (S. aureus DSM 20231): -0.0541
- Bliss interaction score (S. aureus Newman): -0.0895
- Bliss interaction score (S. pneumoniae D39V): -0.0205

SMILES: CN[C@H](CC(C)C)C(=O)N[C@H]1C(=O)N[C@@H](CC(N)=O)C(=O)N[C@H]2C(=O)N[C@H]3C(=O)N[C@H](C(=O)N[C@H](C(=O)O)c4cc(O)cc(O)c4-c4cc3ccc4O)[C@H](O[C@H]3C[C@](C)(N)[C@@H](O)[C@H](C)O3)c3ccc(c(Cl)c3)Oc3cc2cc(c3O[C@@H]2O[C@H](CO)[C@@H](O)[C@H](O)[C@H]2O[C@H]2C[C@](C)(NCc3ccc(-c4ccc(Cl)cc4)cc3)[C@@H](O)[C@H](C)O2)Oc2ccc(cc2Cl)[C@H]1O [Oritavancin] + Oc1cc(Cl)ccc1Oc1ccc(Cl)cc1Cl [Triclosan]
- Bliss interaction score (B. subtilis 168): 0.0201
- Bliss interaction score (S. aureus DSM 20231): 0.108
- Bliss interaction score (S. aureus Newman): -0.0473
- Bliss interaction score (S. pneumoniae D39V): 0.102

SMILES: CO[C@H]1/C=C/O[C@@]2(C)Oc3c(C)c(O)c4c(O)c(c(/C=N/N5CCN(C)CC5)c(O)c4c3C2=O)NC(=O)/C(C)=C\C=C\[C@H](C)[C@H](O)[C@@H](C)[C@@H](O)[C@@H](C)[C@H](OC(C)=O)[C@@H]1C [Rifampicin] + CCCCCCCCCC(=O)N[C@@H]1[C@H]([C@@H]([C@H](O[C@H]1OC2=C3C=C4C=C2OC5=C(C=C(C=C5)[C@H]([C@H]6C(=O)N[C@@H](C7=C(C(=CC(=C7)O)OC8[C@H]([C@H]([C@@H]([C@H](O8)CO)O)O)O)C9=C(C=CC(=C9)[C@H](C(=O)N6)NC(=O)[C@@H]4NC(=O)[C@@H]1C2=CC(=CC(=C2)OC2=C(C=CC(=C2)[C@H](C(=O)N[C@H](CC2=CC(=C(O3)C=C2)Cl)C(=O)N1)N)O)O)O)C(=O)O)O[C@H]1[C@@H]([C@H]([C@@H]([C@H](O1)CO)O)O)NC(=O)C)Cl)CO)O)O [Teicoplanin]
- Bliss interaction score (B. subtilis 168; main component drawn): 0.176
- Bliss interaction score (S. aureus DSM 20231; main component drawn): -0.0357
- Bliss interaction score (S. aureus Newman; main component drawn): -0.0536
- Bliss interaction score (S. pneumoniae D39V; main component drawn): 0.0769

SMILES: CO[C@H]1/C=C/O[C@@]2(C)Oc3c(C)c(O)c4c(O)c(c(/C=N/N5CCN(C)CC5)c(O)c4c3C2=O)NC(=O)/C(C)=C\C=C\[C@H](C)[C@H](O)[C@@H](C)[C@@H](O)[C@@H](C)[C@H](OC(C)=O)[C@@H]1C [Rifampicin] + CC[C@H]1OC(=O)[C@H](C)C(=O)[C@H](C)[C@@H](O[C@@H]2O[C@H](C)C[C@H](N(C)C)[C@H]2O)[C@](C)(OC)C[C@@H](C)C(=O)[C@H](C)[C@H]2N(CCCCn3cnc(-c4cccnc4)c3)C(=O)O[C@]12C [Telithromycin]
- Bliss interaction score (B. subtilis 168): 0.0808
- Bliss interaction score (S. aureus DSM 20231): 0.0559
- Bliss interaction score (S. aureus Newman): 0.0171
- Bliss interaction score (S. pneumoniae D39V): -0.157

SMILES: CO[C@H]1/C=C/O[C@@]2(C)Oc3c(C)c(O)c4c(O)c(c(/C=N/N5CCN(C)CC5)c(O)c4c3C2=O)NC(=O)/C(C)=C\C=C\[C@H](C)[C@H](O)[C@@H](C)[C@@H](O)[C@@H](C)[C@H](OC(C)=O)[C@@H]1C [Rifampicin] + COc1cc(Cc2cnc(N)nc2N)cc(OC)c1OC [Trimethoprim]
- Bliss interaction score (B. subtilis 168): 0.131
- Bliss interaction score (S. aureus DSM 20231): -0.0578
- Bliss interaction score (S. aureus Newman): -0.0473
- Bliss interaction score (S. pneumoniae D39V): 0.0931

SMILES: CO[C@H]1/C=C/O[C@@]2(C)Oc3c(C)c(O)c4c(O)c(c(/C=N/N5CCN(C)CC5)c(O)c4c3C2=O)NC(=O)/C(C)=C\C=C\[C@H](C)[C@H](O)[C@@H](C)[C@@H](O)[C@@H](C)[C@H](OC(C)=O)[C@@H]1C [Rifampicin] + Oc1cc(Cl)ccc1Oc1ccc(Cl)cc1Cl [Triclosan]
- Bliss interaction score (B. subtilis 168): 0.0445
- Bliss interaction score (S. aureus DSM 20231): -0.0595
- Bliss interaction score (S. aureus Newman): 0.0206
- Bliss interaction score (S. pneumoniae D39V): -0.0563

SMILES: CN[C@@H]1[C@H](O)[C@H](NC)[C@H]2O[C@@]3(O)C(=O)C[C@@H](C)O[C@H]3O[C@@H]2[C@H]1O [Spectinomycin] + CC[C@H]1OC(=O)[C@H](C)C(=O)[C@H](C)[C@@H](O[C@@H]2O[C@H](C)C[C@H](N(C)C)[C@H]2O)[C@](C)(OC)C[C@@H](C)C(=O)[C@H](C)[C@H]2N(CCCCn3cnc(-c4cccnc4)c3)C(=O)O[C@]12C [Telithromycin]
- Bliss interaction score (B. subtilis 168): 0.038
- Bliss interaction score (S. aureus DSM 20231): -0.0419
- Bliss interaction score (S. aureus Newman): -0.0947
- Bliss interaction score (S. pneumoniae D39V): -0.14

SMILES: CN[C@@H]1[C@H](O)[C@H](NC)[C@H]2O[C@@]3(O)C(=O)C[C@@H](C)O[C@H]3O[C@@H]2[C@H]1O [Spectinomycin] + Cc1cc(NS(=O)(=O)c2ccc(N)cc2)no1 [Sulfamethoxazol]
- Bliss interaction score (B. subtilis 168): -0.0406
- Bliss interaction score (S. aureus DSM 20231): -0.0866
- Bliss interaction score (S. aureus Newman): 0.0687
- Bliss interaction score (S. pneumoniae D39V): -0.0374

SMILES: CN[C@@H]1[C@H](O)[C@H](NC)[C@H]2O[C@@]3(O)C(=O)C[C@@H](C)O[C@H]3O[C@@H]2[C@H]1O [Spectinomycin] + Oc1cc(Cl)ccc1Oc1ccc(Cl)cc1Cl [Triclosan]
- Bliss interaction score (B. subtilis 168): -0.0762
- Bliss interaction score (S. aureus DSM 20231): -0.0648
- Bliss interaction score (S. aureus Newman): 0.0626
- Bliss interaction score (S. pneumoniae D39V): 0.0557

SMILES: CN[C@@H]1[C@H](O[C@H]2[C@H](O[C@H]3[C@H](O)[C@@H](O)[C@H](N=C(N)N)[C@@H](O)[C@@H]3N=C(N)N)O[C@@H](C)[C@]2(O)C=O)O[C@@H](CO)[C@H](O)[C@H]1O [Streptomycin] + CC[C@H]1OC(=O)[C@H](C)C(=O)[C@H](C)[C@@H](O[C@@H]2O[C@H](C)C[C@H](N(C)C)[C@H]2O)[C@](C)(OC)C[C@@H](C)C(=O)[C@H](C)[C@H]2N(CCCCn3cnc(-c4cccnc4)c3)C(=O)O[C@]12C [Telithromycin]
- Bliss interaction score (B. subtilis 168): 0.0819
- Bliss interaction score (S. aureus DSM 20231): 0.0793
- Bliss interaction score (S. aureus Newman): -0.109
- Bliss interaction score (S. pneumoniae D39V): -0.0487

SMILES: CN[C@@H]1[C@H](O[C@H]2[C@H](O[C@H]3[C@H](O)[C@@H](O)[C@H](N=C(N)N)[C@@H](O)[C@@H]3N=C(N)N)O[C@@H](C)[C@]2(O)C=O)O[C@@H](CO)[C@H](O)[C@H]1O [Streptomycin] + Cc1cc(NS(=O)(=O)c2ccc(N)cc2)no1 [Sulfamethoxazol]
- Bliss interaction score (B. subtilis 168): -0.126
- Bliss interaction score (S. aureus DSM 20231): 0.0929
- Bliss interaction score (S. aureus Newman): 0.0497
- Bliss interaction score (S. pneumoniae D39V): 0.0624

SMILES: CN[C@@H]1[C@H](O[C@H]2[C@H](O[C@H]3[C@H](O)[C@@H](O)[C@H](N=C(N)N)[C@@H](O)[C@@H]3N=C(N)N)O[C@@H](C)[C@]2(O)C=O)O[C@@H](CO)[C@H](O)[C@H]1O [Streptomycin] + Oc1cc(Cl)ccc1Oc1ccc(Cl)cc1Cl [Triclosan]
- Bliss interaction score (B. subtilis 168): -0.249
- Bliss interaction score (S. aureus DSM 20231): -0.06
- Bliss interaction score (S. aureus Newman): -0.0312
- Bliss interaction score (S. pneumoniae D39V): 0.0606
